Laboratory results from publication PMC6609550, “Blockade of the forward Na^+/Ca^2+ exchanger suppresses the growth of glioblastoma cells through Ca^2+‐mediated cell death” (British Journal of Pharmacology, 2019).

Experiments:
[1] = system: JNK; test: Western blot of phosphorylated and total JNK in U87 cells; format: cell-based, Human; conditions: 25 μM, 10, 30, 60 and 90 min
Protocol: After treatment with bepridil for 0, 30, 60, and 90 min, cells were collected and lysed in RIPA buffer (Beyotime, Nanjing, China) supplemented with protease inhibitor (Beyotime). The total protein concentration of each sample was determined using the BCA Protein Assay Kit (Sangon Biotech, Shanghai, China). Equal protein extracts (45‐μg protein per lane) were separated by SDS‐PAGE and electrophoretically transferred to PVDF membranes (Millipore, Bedford, MA, USA). Then, the membranes were incubated with anti‐phosphorylated and total http://www.guidetopharmacology.org/GRAC/FamilyDisplayForward?familyId=514, http://www.guidetopharmacology.org/GRAC/FamilyDisplayForward?familyId=518, and http://www.guidetopharmacology.org/GRAC/FamilyDisplayForward?familyId=519 antibodies (1:1,000; Cell Signaling Technology) at 4°C overnight, followed by incubation with IRDye 680LT fluorescent secondary antibody (LI‐COR Biosciences, Lincoln, NE, USA). Proteins were visualized using the Odyssey Fc Imaging System (LI‐COR Biosciences, Lincoln, NE, USA). Mouse α‐tubulin antibody was used as protein loading controls. The immuno‐related procedures used comply with the recommendations made by the British Journal of Pharmacology (Alexander et al., 2018).

[2] = set-up: method as in Lipsanen et al., 2013; Mitterreiter et al., 2010; conditions: oral administration or intraperitoneal injection at 50 mg·kg^−1 body weight, two animal studies; ref Lipsanen et al., 2013; Mitterreiter et al., 2010; cited from earlier work
[3] = system: U87‐Luc xenografts; test: U87-luciferase intracranial xenograft, in vivo bioluminescent imaging; set-up: species or system athymic BALB/c nude mice; conditions: 50 mg·kg^−1 p.o. once a day for 14 days, from 16 days after implantation; n = 5 mice per group
Protocol: The athymic BALB/c nude mice were anaesthetized by subjecting them to 3% isoflurane (RWD Life Science, Shenzhen, China) in a mixture of 30% O2 and 70% N2O. […] The mouse head was maintained within a stereotactic frame (RWD Life Science), allowing a precise and reproducible injection. The coordinate of the injection site was 0.5 mm anterior and 2.5 mm right from the bregma and at a depth of 3 mm. U87-Luc cells (COBIOER) were assessed by the trypan blue exclusion assay. Only cell suspensions with greater than 95% viability were used and implanted into the right striatum of nude mice. U87-Luc cells (5 × 10^5 in 5-μl PBS) were inoculated into the right striatum of each mouse at a controlled flow rate of 0.5 μl·min^-1, and the total injection volume was about 5 μl. […] Tumours were measured by bioluminescence using an IVIS Spectrum CT Imaging System (PerkinElmer, Waltham, MA, USA), which captured the luminescence signal emitted from the engrafted tumour. […] Signal intensity was quantified within a region of interested over the head, as defined by Living Image software. All images represent 2-min exposure time, and the average number of photons·s^-1·cm^-2 per steradian were recorded. The data were analysed using Living Image 4.4.5 software (PerkinElmer, RRID:SCR_014247).

[4] = LC-MS analysis of brain homogenate after oral bepridil; format: in vivo, athymic BALB/c nude mice; conditions: 50 mg·kg^−1 p.o., brain homogenate collected at 2 hr
Protocol: Athymic BALB/c nude mice were administered bepridil by oral gavage at doses of 50 mg·kg^−1 as described above. Two hours later, mice were killed, and the brain sample was homogenized using the tissue homogenizers (Bertin Instruments, Paris, France) in ice‐cold deionized water at a concentration of 3 ml·g^−1 tissue. Then, methanol with 0.1% formic acid was added to the brain homogenate in a 4:1 proportion (vol/vol) and centrifuged at 18,188× g and 4°C for 10 min to precipitate protein. The supernatant was transferred to a vial to be injected directly into the LC‐MS. The chromatographic system consisted of Shimadzu quaternary pump, vacuum degasser, and autosampler (Shimadzu, LC‐20ADXR, Tokyo, Japan) coupled to https://sciex.com/products/mass-spectrometers/triple-quad-systems, API‐4000 mass spectrometer (SCIEX, Redwood City, CA, USA). HPLC separation was performed on a Thermo Syncronis C8 column 100 × 2.1 mm, 5.0 μm. The mobile phase consisted of methanol (A) and water with 0.1% formic acid (B), measure time was 9 min per run. A flow rate of 0.3 ml·min^−1 was used using a gradient elution of 70% B at 1 min and 5–70% B between 1 and 5 min and maintained for 2 min at 5% B and back to 70% B at 7–7.1 min. […] The CE for bepridil was optimized to 30 V. The precursor‐to‐product ions (Q1 → Q3) selected for bepridil during quantitative optimization were (m/z) 367.1 → 84.3/184.3.

## CC(C)COCC(CN(Cc1ccccc1)c1ccccc1)N1CCCC1 (stereo not shown) [Bepridil, N‐benzyl‐N‐(3‐isobutoxy‐2‐pyrrolidin‐1‐yl‐propyl)aniline]
[1]
  Effect on JNK activity: activated
[2]
  Penetration of the blood–brain barrier: able to penetrate the blood–brain barrier (BBB) and reach the brain
[3]
  Growth of brain-grafted U87-Luc tumour (bioluminescence): successfully restrained tumour growth
[4]
  Crossing of the BBB into brain tissue: can cross the BBB and get into brain tissue
